In brackets after ≈: the same amount, converted by molar mass. Read-outs that look alike come from different tables or passages of the source. Marks after values point to notes of the source that are not given here.
Columns and labels:
P-glycoprotein (P-gp) = target: T1, P-glycoprotein (P-gp) (Homo sapiens, UniProt P08183); assay: P-gp transporter inhibition; format: in vitro ADME
T1 construct: the P-gp transporter expressed on Caco-2 cell monolayers; endogenous in cells; host or cells: Caco-2
Procedure: (§1) The cell-based bidirectional permeability assay (or monolayer efflux assay) is a method for determining transporter inhibition (such as P-glycoprotein (P-gp) or Breast Cancer Resistance Protein (BCRP)) potential of test compounds in drug discovery. The experimental protocol for this assay is well established and typically, bidirectional permeability of a known substrate is assessed alone and in the presence of a single concentration of test compound to estimate the inhibition potential.
(§2) The monolayer efflux assay, where the ratio of basolateral-to-apical (B→A) permeability versus apical-to-basolateral (A→B) permeability is compared with a value of 1, is regarded as the standard for identifying substrates. Due to concentration-dependent inhibition of active efflux on the apical side by inhibitors, the B→A permeability decreases whilst A→B permeability increases with ratio approaching unity as the dose of inhibitor increases. The affinity of inhibitor to efflux protein(s) may be studied by calculating the active flux that can be obtained from the B→A fluxes in the absence and presence of efflux inhibitors. Inhibition potency, determined by inhibitor concentration-dependent transport assay, is usually represented as an IC50 value, the concentration that gives 50% of maximum inhibition of a known P-gp or BCRP substrate. Specificity of the inhibitor to P-gp or BCRP may be determined by competitive assays, which involve a transport assay of a known substrate in the presence of known inhibitors (specific to various transporters) with and without test compounds. Thus, appropriate design of competitive inhibition assays using known selected substrates and modulators will show the specificity of an inhibitor towards an efflux pump.
The potential inhibitory activity of a compound on the P-gp transporter expressed on Caco-2 cell monolayers may be investigated in experiments monitoring the bi-directional transport of a test compound in the presence or absence of a P-gp inhibitor such as Cyclosporin A (CsA) or verapamil.
The potential inhibitory activity of a compound on the P-gp transporter expressed on Caco-2 cell monolayers may also be investigated in experiments monitoring the bi-directional transport of [^3H]-digoxin in the presence of increasing concentrations of a test compound (such as 1, 5, 20, 100, and 200 μg/mL or 1.6, 3.2, 16, 32, 160 and 320 μg/mL). If the efflux of [^3H]-digoxin is not inhibited by a test compound, the test compound is likely a poor inhibitor of P-gp. If the efflux of [^3H]-digoxin is inhibited by a test compound, the IC50 value may be calculated using a non-linear regression of permeability data collected at various concentrations.
(§3) The Caco-2 permeability, P-gp substrate and inhibitory activity, and BCRP substrate and inhibitory activity of Sulfoxide-1, Sufloxide-1A, Sulfoxide-1B, Sulfone-1, and SM-1 was investigated using procedures similar to those described above.

Aqueous solubility = format: physicochemical; conditions: for aqueous solubility compared with SM-1: across a range of pH's
Text: The aqueous solubility of Sulfoxide-1, Sufloxide-1A, Sulfoxide-1B, Sulfone-1, and SM-1 was investigated.

Caco-2 monolayers = assay: Caco-2 permeability; format: in vitro ADME, human; conditions: tested concentrations of 12.5 μg/mL and 50 μg/mL
Text: Differentiated Caco-2 cells form a polarized epithelial cell monolayer that provides a physical and biochemical barrier to the passage of ions and small molecules. Using commercially available kits, the Caco-2 monolayer may be used as an in vitro model of the human small intestinal mucosa to predict the intestinal permeability or absorption of orally administered drugs. Researchers have shown a correlation for some molecules between the in vitro apparent permeability (Papp) across Caco-2 monolayers and the in vivo fraction absorbed.
The permeability of a compound may be evaluated in a bi-directional transport experiments at multiple concentrations (such as 1, 2, 5, 20, 100 and 200 μg/mL) using Caco-2 monolayers. The apparent permeability coefficients (Papp) for a compound may be calculated and compared with the permeability of a high permeability marker (such as labetalol) and a low permeability marker (such as mannitol).
as §3
(§4) As summarized in Table 2 below, except for Sulfoxide-1B, all of the tested compounds had low Caco-2 cell permeability and were weak efflux transporter substrates at the tested concentrations of 12.5 μg/mL and 50 μg/mL.

[1] = target: T2, breast cancer resistance protein (BCRP) (Homo sapiens, UniProt Q9UNQ0); assay: BCRP transporter inhibition; format: in vitro ADME
T2 construct: endogenous in cells
T2 sequence (Q9UNQ0 1-655): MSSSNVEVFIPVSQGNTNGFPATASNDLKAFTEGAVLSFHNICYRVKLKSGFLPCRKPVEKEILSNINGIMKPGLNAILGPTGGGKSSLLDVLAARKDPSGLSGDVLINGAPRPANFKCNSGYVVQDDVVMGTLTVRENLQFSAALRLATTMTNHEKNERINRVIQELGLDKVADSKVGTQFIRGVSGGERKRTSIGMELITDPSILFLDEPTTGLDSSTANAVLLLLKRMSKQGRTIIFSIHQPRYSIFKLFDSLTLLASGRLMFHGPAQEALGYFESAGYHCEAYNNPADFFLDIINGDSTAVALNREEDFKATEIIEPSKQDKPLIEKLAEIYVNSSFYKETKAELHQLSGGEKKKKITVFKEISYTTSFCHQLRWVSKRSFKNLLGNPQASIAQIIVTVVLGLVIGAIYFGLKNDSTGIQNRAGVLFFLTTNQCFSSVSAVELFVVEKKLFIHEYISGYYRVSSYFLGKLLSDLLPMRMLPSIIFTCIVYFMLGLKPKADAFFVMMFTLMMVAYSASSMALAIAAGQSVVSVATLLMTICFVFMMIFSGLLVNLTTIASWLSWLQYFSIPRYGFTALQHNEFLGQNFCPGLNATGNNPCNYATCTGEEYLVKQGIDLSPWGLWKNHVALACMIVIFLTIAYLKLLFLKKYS
Procedure: as §1, §2
(§5) The substrate and inhibitor potential of a test compound for the apical efflux transported breast cancer resistance protein (BCRP) may also be evaluated using a bidirectional permeability assessment where the controls are Ko143 (a potent inhibitor of BCRP) and E3S (estrone-3-sulphate, a substrate for BCRP) and across a range of test compound concentrations such as 1, 5, 20, 100, and 200 μg/mL or 1.6, 3.2, 16, 32, 160 and 320 μg/mL).
as §3

efflux transporter = assay: Efflux substrate activity (monolayer efflux assay); format: in vitro ADME; conditions: tested concentrations of 12.5 μg/mL and 50 μg/mL
Procedure: as §1, §2
The potential for P-glycoprotein (P-gp) substrate inhibitory activity of a test compound may be evaluated by determining a test compound's Caco-2 permeability in the presence or absence of a P-gp inhibitor such as Cyclosporin A (CsA) or verapamil.
as §5, §3, §4

[2] = 0.1N HCl, simulated gastric fluid, 0.1N HCl, read-out: Solubility
[3] = acetate buffer, pH 4.5, aqueous buffer, Acetate Buffer pH 4.5, read-out: Solubility
[4] = phosphate buffer, pH 6.5, aqueous buffer, Phosphate Buffer pH 6.5, read-out: Solubility

T1 sequence (P08183 whole entry): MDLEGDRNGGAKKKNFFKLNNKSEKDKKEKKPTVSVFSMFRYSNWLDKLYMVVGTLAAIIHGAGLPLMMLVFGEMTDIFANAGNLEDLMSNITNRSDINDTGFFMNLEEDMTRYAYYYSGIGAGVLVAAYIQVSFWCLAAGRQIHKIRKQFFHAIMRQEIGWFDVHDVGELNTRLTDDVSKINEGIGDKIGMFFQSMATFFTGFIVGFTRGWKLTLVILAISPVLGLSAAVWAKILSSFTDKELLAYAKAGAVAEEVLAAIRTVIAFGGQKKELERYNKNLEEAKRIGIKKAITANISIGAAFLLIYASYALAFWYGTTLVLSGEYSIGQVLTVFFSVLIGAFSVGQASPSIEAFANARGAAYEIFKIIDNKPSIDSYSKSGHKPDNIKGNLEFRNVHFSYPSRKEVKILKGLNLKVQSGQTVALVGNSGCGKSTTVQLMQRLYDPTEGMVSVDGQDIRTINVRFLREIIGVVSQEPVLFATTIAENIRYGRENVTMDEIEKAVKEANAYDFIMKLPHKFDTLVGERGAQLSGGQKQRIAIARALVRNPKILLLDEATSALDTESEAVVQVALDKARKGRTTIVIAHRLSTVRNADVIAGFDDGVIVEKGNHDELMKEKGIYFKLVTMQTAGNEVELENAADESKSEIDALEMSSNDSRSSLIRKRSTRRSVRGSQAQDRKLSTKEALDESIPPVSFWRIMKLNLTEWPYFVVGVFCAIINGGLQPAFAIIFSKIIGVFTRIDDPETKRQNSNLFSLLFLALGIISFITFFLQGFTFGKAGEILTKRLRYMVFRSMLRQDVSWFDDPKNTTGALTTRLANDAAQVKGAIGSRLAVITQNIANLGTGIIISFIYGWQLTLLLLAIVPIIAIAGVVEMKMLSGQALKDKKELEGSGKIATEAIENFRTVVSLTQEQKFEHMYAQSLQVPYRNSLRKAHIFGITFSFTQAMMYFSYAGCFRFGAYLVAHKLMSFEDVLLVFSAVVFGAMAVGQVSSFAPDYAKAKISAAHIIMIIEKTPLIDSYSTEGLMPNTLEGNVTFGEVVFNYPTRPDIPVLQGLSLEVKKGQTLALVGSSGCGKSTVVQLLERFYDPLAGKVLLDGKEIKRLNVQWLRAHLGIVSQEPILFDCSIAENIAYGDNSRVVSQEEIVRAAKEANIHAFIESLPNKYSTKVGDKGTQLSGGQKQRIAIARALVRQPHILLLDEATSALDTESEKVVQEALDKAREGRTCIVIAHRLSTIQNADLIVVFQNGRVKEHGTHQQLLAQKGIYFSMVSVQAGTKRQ

SMILES | IC50 (P-glycoprotein (P-gp)) | solubility (Aqueous solubility; [2]) | solubility (Aqueous solubility; [3]) | aqueous solubility compared with SM-1 (Aqueous solubility) | solubility (Aqueous solubility; [4]) | Caco-2 Permeability (Caco-2 monolayers) | BCRP inhibitory activity, rank among the tested compounds [1] | IC50 [1] | Efflux Transporter Substrate (efflux transporter) | P-gp inhibitory activity, rank among the tested compounds (P-glycoprotein (P-gp)) | solubility (Aqueous solubility; 0.1N HCl) | solubility (Aqueous solubility; Acetate Buffer pH 4.5) | solubility (Aqueous solubility; Phosphate Buffer pH 6.5)
CCCO[C@H]1CC[C@H](N(C(=O)Nc2ncc([S+]([O-])CC(=O)O)s2)C2CCCCC2)CC1 (relative stereo) [Sulfoxide-1, {2-[3-Cyclohexyl-3-(trans-4-propoxy-cyclohexyl)-ureido]-thiazol-5-ylsulfinyl}-acetic acid] | ~212 µM | 30 µg/mL (≈ 0.0636 mM) | 2570 µg/mL (≈ 5.45 mM) | much greater aqueous solubility than SM-1 | 2930 µg/mL (≈ 6.21 mM) | Low | weakest BCRP inhibitors | > 212 µM | Yes | – | – | – | –
CCCO[C@H]1CC[C@H](N(C(=O)Nc2ncc([S+]([O-])CC(=O)O)s2)C2CCCCC2)CC1 (single isomer, unassigned) [Sulfoxide-1A, {2-[3-Cyclohexyl-3-(trans-4-propoxy-cyclohexyl)-ureido]-thiazol-5-ylsulfinyl}-acetic acid] | ~138 µM | 120 µg/mL (≈ 0.254 mM) | 1630 µg/mL (≈ 3.46 mM) | much greater aqueous solubility than SM-1 | 1940 µg/mL (≈ 4.11 mM) | Low | – | ~170 µM | Yes | – | – | – | –
CCCO[C@H]1CC[C@H](N(C(=O)Nc2ncc([S+]([O-])CC(=O)O)s2)C2CCCCC2)CC1 (single isomer, unassigned) [Sulfoxide-1B, {2-[3-Cyclohexyl-3-(trans-4-propoxy-cyclohexyl)-ureido]-thiazol-5-ylsulfinyl}-acetic acid] | > 212 µM | – | – | much greater aqueous solubility than SM-1 | – | Moderate | weakest BCRP inhibitors | > 212 µM | not an efflux transporter substrate and No | weakest P-gp inhibitor | 120 µg/mL (≈ 0.254 mM) | 1850 µg/mL (≈ 3.92 mM) | 1990* μg/mL
CCCO[C@H]1CC[C@H](N(C(=O)Nc2ncc(SCC(=O)O)s2)C2CCCCC2)CC1 [SM-1, {2-[3-cyclohexyl-3-(trans-4-propoxy-cyclohexyl)-ureido]-thiazol-5-ylsulfanyl}-acetic acid, reference compound] | 115 µM | – | 0.44 µg/mL (≈ 0.000966 mM) | – | 21 µg/mL (≈ 0.0461 mM) | Low | strongest BCRP inhibitor | 19.5 µM | Yes | – | – | – | –
CCCO[C@H]1CC[C@H](N(C(=O)Nc2ncc(S(=O)(=O)CC(=O)O)s2)C2CCCCC2)CC1 [Sulfone-1, {2-[3-Cyclohexyl-3-(trans-4-propoxy-cyclohexyl)-ureido]-thiazol-5-ylsulfonyl}-acetic acid] | ~205 µM | 10 µg/mL (≈ 0.0205 mM) | 2070 µg/mL (≈ 4.24 mM) | much greater aqueous solubility than SM-1 | 2100 µg/mL (≈ 4.31 mM) | Low | weakest BCRP inhibitors | > 205 µM | Yes | – | – | – | –
